The values below come from patent publication US6417231B1, “Method and composition for delivering therapeutically effective amounts of pyruvate to a mammal” (priority 1996, dated 2002).

Data set [1] is described as follows: Time course of blood pyruvate concentration after oral gavage (bioavailability of pyruvate). The format is in vivo, male Sprague-Dawley rats. The note with it: rat; for Blood pyruvate concentration: single animals. From the text: The basic measurement is the time course of serum pyruvate concentration following oral administration of tripyruvin, compared with that following oral administration of sodium pyruvate or a placebo.
Six male Sprague-Dawley rats, weighing 380±28 grams (mean±standard deviation), were used in the initial animal experiments. The rats were divided into three groups of two rats each, one group of two for the experimental treatment, one group for the conventional sodium pyruvate treatment, and one group for placebo. The rats were housed in hanging wire cages (two per cage) in a room maintained at 22° C., and were kept on a twelve-hour light/dark cycle with lights on at 7 AM. All animals had free access to water and to standard laboratory rodent chow; except that on nights before an experiment food was removed at 6 PM.
An initial time-course experiment was performed with the crude reaction mixture, in which tripyruvin and free pyruvate were both present (i.e., with the product of “Step 4” n the synthesis described above, without the further purification of “Step 5.”) 1.14 g of this mixture (76% sodium pyruvate, 24% tripyruvin=0.79 total pyruvate) in 2 mL sterile water was fed by gavage in a single dose. For comparison, rats were fed an equivalent amount of pyruvate as sodium pyruvate in water; or were fed a placebo comprising water only. Blood samples (250 μL) taken from a snipped tail vein were collected before feeding, and at 60, 90, 120, and 150 minutes after gavage feeding.
The assay for serum pyruvate concentration was a modification of the Sigma NADH-NAD assay. Collected blood samples were diluted 1:3 in cold 8% perchloric acid (aqueous), and the precipitates were vortexed and centrifuged. Supernatant (100 μL) was pipetted into a microtiter plate. Trizma base (25 μL) was pipetted into the plate, followed by 25 μL of aqueous NADH solution (1 g/2.2 mL). The absorbance of the solution at 340 nm was then measured as a baseline. […] dehydrogenase (50 μL, 10 U/mL) was then pipetted into the plate, and the plate was incubated at 37° C. for 3-5 minutes. Absorbance at 340 nm was again measured (to assay the extent of the reaction NADH→NAD+H^+). Standards and two levels of quality control samples were run with each plate. Results are shown in Table 1 for each of the six rats.

A short description of data set [2]: Solubility in water. The format is physicochemical. The text has this:
After purification, the identity of the tripyruvin was confirmed by laser-desorption mass spectrometry, elemental analysis, and ^1H nuclear magnetic resonance.

The mark [3] stands for this setting: oral gavage, compared with sodium pyruvate.

Molecules are shown by their SMILES. “And” between values parts separate entries of the source, which are not always exact repeats. Equal values may be shown once.

`CC(=O)C(=O)[O-].[Na+]` [sodium pyruvate]: the Blood pyruvate concentration in data set [1] (60 min after single oral gavage dose in 2 mL water) is 0.07 mM and 0.10 mM; in data set [1] (90 min after single oral gavage dose in 2 mL water), 0.07 mM and 0.09 mM; in data set [1] (120 min after single oral gavage dose in 2 mL water), 0.12 mM; in data set [1] (150 min after single oral gavage dose in 2 mL water) it was 0.12 mM and 0.16 mM; in data set [1] (time 0 min (before gavage feeding)), 0.07 mM and 0.06 mM.
`CC(=O)C(=O)OCC(COC(=O)C(C)=O)OC(=O)C(C)=O` [tripyruvin, tripyruvyl glycerol]: in data set [1] (setting [3]), the Bioavailability of pyruvate result is listed as “higher” and the “Rise in blood pyruvate levels” value is “more rapid rise”. For the same compound, the Solubility in water entry in data set [2] is listed as “freely soluble”.
